Experimental findings from patent US20260042755A1, “GPR6 INVERSE AGONISTS” (MapLight Therapeutics, Inc., priority 2022, published 2026) are described below.

For one assay, the target named is T1, GPR3 (Homo sapiens, UniProt P46089).
T1 construct: expressed in transfected cells; host or cells: CHO cells
Briefly: GPR3 antagonist functional cAMP assay (LANCE Ultra cAMP TR-FRET, CHO cells stably expressing GPR3). It counts as cell-based. In outline: (§1)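 Suspended cells were plated at 10,000 per well in Krebs-Ringer bicarbonate buffer containing 0.1% BSA and 150 μM Ro 20-1724, then treated with compounds for 45 min at 37 °C. Intracellular cAMP was then quantified by TR-FRET immunoassay.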

For a further assay, the target named is T2, GPR6 (Homo sapiens, UniProt P46095).
T2 construct: expressed in transfected cells; host or cells: CHO cells
Briefly: GPR6 antagonist functional cAMP assay (LANCE Ultra cAMP TR-FRET, CHO cells stably expressing GPR6). The class given is cell-based. In outline: as §1
A general note: cAMP levels reflect the balance of adenylyl cyclase and phosphodiesterase activity.

Setting [1] is: CHO cells stably expressing GPR3, cAMP assay.
[2] abbreviates: CHO cells stably expressing GPR6, cAMP assay.
Where [3] appears, read: CHO cells stably expressing GPR3, cAMP assay (Example 24).
Setting [4] is: CHO cells stably expressing GPR6, cAMP assay (Example 24).
[5] abbreviates: procedure as described in Example 24.

SMILES strings stand for the structures.

T2 sequence (P46095 whole entry): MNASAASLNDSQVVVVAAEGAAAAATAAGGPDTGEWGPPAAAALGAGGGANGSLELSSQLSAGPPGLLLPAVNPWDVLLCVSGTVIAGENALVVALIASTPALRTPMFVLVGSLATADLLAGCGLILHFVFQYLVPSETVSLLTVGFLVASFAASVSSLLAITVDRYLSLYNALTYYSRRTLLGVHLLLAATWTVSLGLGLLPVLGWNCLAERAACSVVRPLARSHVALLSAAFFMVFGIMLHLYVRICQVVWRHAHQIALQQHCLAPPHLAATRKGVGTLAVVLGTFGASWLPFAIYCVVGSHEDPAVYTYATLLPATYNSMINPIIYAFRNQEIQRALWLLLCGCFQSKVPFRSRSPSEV
T1 sequence (P46089 whole entry, species assumed): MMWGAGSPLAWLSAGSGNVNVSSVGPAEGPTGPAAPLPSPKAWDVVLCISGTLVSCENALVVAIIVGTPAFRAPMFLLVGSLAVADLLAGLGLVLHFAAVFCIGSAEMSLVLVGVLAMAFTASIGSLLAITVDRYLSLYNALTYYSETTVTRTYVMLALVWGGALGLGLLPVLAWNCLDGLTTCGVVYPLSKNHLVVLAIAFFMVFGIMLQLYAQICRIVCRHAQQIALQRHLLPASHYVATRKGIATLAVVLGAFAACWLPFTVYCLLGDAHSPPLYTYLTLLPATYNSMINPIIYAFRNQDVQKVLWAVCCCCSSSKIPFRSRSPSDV

For orientation: IC50 means the concentration that inhibits the measured activity by half. High values mean weaker potency in that assay, low ones greater potency in that assay. As to `CCn1cc(-c2nc3cc(C(O)C(C)(C)O)ncc3nc2N2CCC(Oc3ccc(F)cc3F)CC2)cn1` (single isomer, unassigned) [Compound 588], the IC50 is 0.1 to 1 µM against GPR3 (setting [1]) and less than 0.1 µM against GPR6 (setting [2]).
`CC(C)(O)C(C)(O)c1cc2nc(-c3cnn(C(F)F)c3)c(N3CCN(Cc4ccc(F)cc4F)CC3)nc2cn1` (single isomer, unassigned) [Compound 663]: the IC50 against GPR3 (procedure of Example 24) was 1 to 30 µM; against GPR6 (procedure of Example 24), less than 0.1 µM.
For `CC(C)(O)C(=O)c1cc2nc(N3CCC(Oc4ccc(F)cc4F)CC3)c(-c3cnn(CF)c3)nc2cn1` [Compound 621, 1-{2-[4-(2,4-difluorophenoxy)-1-piperidyl]-3-[1-(fluoromethyl)-4-pyrazolyl]-1,4,6-triaza-7-naphthyl}-2-hydroxy-2-methyl-1-propanone], in that order: 1 to 30 µM and 0.1 to 1 µM.
As to `CC(=O)N1CCc2nc(N3CC(Oc4ccc(F)cc4F)C3)c(-c3cnn(C)c3)nc2C1` [Compound 398, 1-{2-[3-(2,4-difluorophenoxy)azetidin-1-yl]-3-(1-methyl-1H-pyrazol-4-yl)-5H,6H,7H,8H-pyrido[3,4-b]pyrazin-6-yl}ethan-1-one], the IC50 on GPR3 (setting [3]) and against GPR6 (setting [4]) was 1 to 30 µM throughout.
Regarding `CC(=O)N1CCc2nc(N3CCC(Oc4cccc(F)c4)CC3)c(-c3cnn(C)c3)nc2C1` [Compound 393, 1-{2-[4-(3-fluorophenoxy)piperidin-1-yl]-3-(1-methyl-1H-pyrazol-4-yl)-5H,6H,7H,8H-pyrido[3,4-b]pyrazin-6-yl}ethan-1-one], the IC50 against GPR3 (setting [3]) and on GPR6 (setting [4]) was 1 to 30 µM throughout.
For `CC(C)(O)[C@](C)(O)c1cc2nc(N3CCN(Cc4ccc(F)cc4F)CC3)c(-c3cnn(C(F)F)c3)nc2cn1` (single isomer, unassigned) [Compound 694], the 50% inhibitory concentration (IC50) was 1 to 30 µM on GPR3 (procedure of Example 24) and 0.1 to 1 µM against GPR6 (procedure of Example 24).
For `CC(=O)N1CCc2nc(N3CCN(C(c4ccc(F)cc4F)C(F)(F)F)CC3)c(-c3cnn(C)c3)nc2C1` (stereo not drawn) [Compound 731, 1-(2-{4-[1-(2,4-difluorophenyl)-2,2,2-trifluoroethyl]-1-piperazinyl}-3-(1-methyl-4-pyrazolyl)-5,6,7,8-tetrahydro-1,4,6-triaza-6-naphthyl)-1-ethanone], in that order: not below 30 µM and 1 to 30 µM.
In the same order, the values of `CC(C)(O)[C@@H](O)c1cc2nc(N3CCC(=Cc4ccc(F)cc4F)CC3)c(-c3cnn(C(F)F)c3)nc2cn1` (single isomer, unassigned) [Compound 778] are 1 to 30 µM and 0.1 to 1 µM.
For `CC(=O)N1CCc2nc(N3CCC(O)(Cc4ccc(F)cc4F)CC3)c(-c3cnn(C)c3)nc2C1` [Compound 699, 1-(2-(4-(2,4-difluorobenzyl)-4-hydroxypiperidin-1-yl)-3-(1-methyl-1H-pyrazol-4-yl)-7,8-dihydropyrido[3,4-b]pyrazin-6(5H)-yl)ethan-1-one], in that order: 1 to 30 µM and 0.1 to 1 µM.
For `CC(=O)N1CCc2nc(N3CCC(Oc4ccc(F)cc4F)CC3)c(-c3ccc4c(n3)OCC4)nc2C1` [Compound 326, 1-{2-[4-(2,4-difluorophenoxy)piperidin-1-yl]-3-{2H,3H-furo[2,3-b]pyridin-6-yl}-5H,6H,7H,8H-pyrido[3,4-b]pyrazin-6-yl}ethan-1-one], the IC50 against GPR3 (procedure of Example 24) and against GPR6 (procedure of Example 24) was 1 to 30 µM in each case.
With `COCCOc1cc2nc(N3CCC(Oc4ccc(F)cc4F)CC3)c(-c3cnn(C)c3)nc2cn1` [Compound 381, 4-(2,4-difluorophenoxy)-1-[7-(2-methoxyethoxy)-3-(1-methyl-1H-pyrazol-4-yl)pyrido[3,4-b]pyrazin-2-yl]piperidine], the results for the IC50 on GPR3 (setting [3]) and at GPR6 (setting [4]) were 1 to 30 µM and 0.1 to 1 µM, respectively.
For `CC(=O)N1Cc2nc(-c3cnn(C)c3)c(N3CCC(Oc4ccc(F)cc4F)CC3)nc2CC1C` (single isomer, unassigned) [Compound 446], in that order: 1 to 30 µM and 0.1 to 1 µM.
`CC(=O)N1CCc2nc(N3CCC(Cc4ccc(F)cc4F)C3)c(-c3cnn(C)c3)nc2C1` (stereo not drawn) [Compound 738, 1-(2-{3-[(2,4-difluorophenyl)methyl]-1-pyrrolidinyl}-3-(1-methyl-4-pyrazolyl)-5,6,7,8-tetrahydro-1,4,6-triaza-6-naphthyl)-1-ethanone]: the IC50 against GPR3 (procedure of Example 24) and against GPR6 (procedure of Example 24) was 1 to 30 µM throughout.
For the molecule `CC(C)(O)Cc1cc2nc(N3CCC(Oc4ccc(F)cc4F)CC3)c(-c3cnn(CF)c3)nc2cn1` [Compound 710, 1-{2-[4-(2,4-difluorophenoxy)-1-piperidyl]-3-[1-(fluoromethyl)-4-pyrazolyl]-1,4,6-triaza-7-naphthyl}-2-methyl-2-propanol], the IC50 against GPR3 (procedure of Example 24) was 1 to 30 µM; on GPR6 (procedure of Example 24) it was 0.1 to 1 µM.
On to `CC(=O)N1CCc2nc(N3CCC(Oc4ccc(F)cc4F)CC3)c(-c3cnn(C4COC4)c3)nc2C1` [Compound 77, 1-{2-[4-(2,4-difluorophenoxy)piperidin-1-yl]-3-[1-(oxetan-3-yl)-1H-pyrazol-4-yl]-5H,6H,7H,8H-pyrido [3,4-b]pyrazin-6-yl}ethan-1-one], for which the IC50 at GPR3 (setting [3]) lay in the range of 1 to 30 µM; on GPR6 (setting [4]) it was 0.1 to 1 µM.
In the same order, the values of `CC(=O)N1CCc2nc(N3CCC(Oc4ccc(F)cc4F)CC3)c(-c3c(C)n[nH]c3C)nc2C1` [Compound 98, 1-{2-[4-(2,4-difluorophenoxy)piperidin-1-yl]-3-(3,5-dimethyl-1H-pyrazol-4-yl)-5H,6H,7H,8H-pyrido[3,4-b]pyrazin-6-yl}ethan-1-one] are not below 30 µM and not below 30 µM.
For `COc1cncc(-c2nc3cnc(C)cc3nc2N2CCC(Oc3ccc(F)cc3F)CC2)n1` [Compound 230, 2-{2-[4-(2,4-difluorophenoxy)piperidin-1-yl]-7-methylpyrido[3,4-b]pyrazin-3-yl}-6-methoxypyrazine], in that order: 1 to 30 µM and 1 to 30 µM.
For the molecule `CC(=O)N1CCc2nc(N3CCN(Cc4cc(Cl)ccc4Cl)CC3)c(-c3cnn(C)c3)nc2C1` [Compound 281, 1-(2-{4-[(2,5-dichlorophenyl)methyl]piperazin-1-yl}-3-(1-methyl-1H-pyrazol-4-yl)-5H,6H,7H,8H-pyrido[3,4-b]pyrazin-6-yl)ethan-1-one], the IC50 is 1 to 30 µM on GPR3 (procedure of Example 24) and less than 0.1 µM against GPR6 (procedure of Example 24).
Take `COCCN1CCc2nc(N3CCC(Oc4ccc(F)cc4F)CC3)c(-c3cn[nH]c3)nc2C1` [Compound 143, 4-(2,4-difluorophenoxy)-1-[6-(2-methoxyethyl)-3-(1H-pyrazol-4-yl)-5H,6H,7H,8H-pyrido[3,4-b]pyrazin-2-yl]piperidine]: the IC50 against GPR3 (setting [3]) is 1 to 30 µM; against GPR6 (setting [4]) it was 0.1 to 1 µM.
In the same order, the values of `COc1cccc(-c2nc3cnccc3nc2N2CCC(Oc3ccc(F)cc3F)CC2)n1` [Compound 102, 2-{2-[4-(2,4-difluorophenoxy)piperidin-1-yl]pyrido[3,4-b]pyrazin-3-yl}-6-methoxypyridine] are 1 to 30 µM and 0.1 to 1 µM.
As to `CC(=O)N1CCc2nc(N3CCC(Oc4ccc(F)cc4F)CC3)c(C3CCN(CC(F)(F)F)CC3)nc2C1` [Compound 496, 1-{2-[4-(2,4-difluorophenoxy)-1-piperidyl]-3-[1-(2,2,2-trifluoroethyl)-4-piperidyl]-5,6,7,8-tetrahydro-1,4,6-triaza-6-naphthyl}-1-ethanone], the IC50 against GPR3 (setting [1]) and against GPR6 (setting [2]) was 1 to 30 µM in each case.
Consider `COc1cncc(-c2nc3cnc(C(O)C(C)(C)O)cc3nc2N2CCN(Cc3ccc(F)cc3F)CC2)n1` (single isomer, unassigned) [Compound 94, 1-(2-(4-(2,4-difluorobenzyl)piperazin-1-yl)-3-(6-methoxypyrazin-2-yl)pyrido[3,4-b]pyrazin-7-yl)-2-methylpropane-1,2-diol], for which the IC50 at GPR3 (setting [3]) and against GPR6 (setting [4]) was 1 to 30 µM in each case.
Regarding `CC(C)(O)Cc1cc2nc(-c3cnn(CF)c3)c(N3CCC(Oc4ccc(F)cc4F)CC3)nc2cn1` [Compound 717, 1-{3-[4-(2,4-difluorophenoxy)-1-piperidyl]-2-[1-(fluoromethyl)-4-pyrazolyl]-1,4,6-triaza-7-naphthyl}-2-methyl-2-propanol], the values for the IC50 against GPR3 (procedure of Example 24) and against GPR6 (procedure of Example 24) were 1 to 30 µM and 0.1 to 1 µM, respectively.
Take `COC(CO)c1cc2nc(N3CCC(Oc4ccc(F)cc4F)CC3)c(-c3cnn(C)c3)nc2cn1` (stereo not drawn) [Compound 438, 2-(2-(4-(2,4-difluorophenoxy)piperidin-1-yl)-3-(1-methyl-1H-pyrazol-4-yl)pyrido[3,4-b]pyrazin-7-yl)-2-methoxyethan-1-ol]: the IC50 on GPR3 (setting [3]) lay in the range of 1 to 30 µM; on GPR6 (setting [4]), 0.1 to 1 µM.
`CS(=O)(=O)c1ccc(CN2CCN(c3nc4ccncc4nc3-c3cn[nH]c3)CC2)c(F)c1` [Compound 22, 1-[(2-fluoro-4-methanesulfonylphenyl)methyl]-4-[3-(1H-pyrazol-4-yl)pyrido[3,4-b]pyrazin-2-yl]piperazine]: the figures for the IC50 at GPR3 (setting [5]) and at GPR6 (setting [5]) were 0.1 to 1 µM and not below 30 µM, respectively.
As for `CC(=O)N1CCc2nc(N3CCC(Oc4ccc(F)cc4F)CC3)c(-c3cccc(N)n3)nc2C1` [Compound 168, 1-[3-(6-aminopyridin-2-yl)-2-[4-(2,4-difluorophenoxy)piperidin-1-yl]-5H,6H,7H,8H-pyrido[3,4-b]pyrazin-6-yl]ethan-1-one], the figures for the 50% inhibitory concentration (IC50) against GPR3 (setting [3]) and against GPR6 (setting [4]) were 0.1 to 1 µM and less than 0.1 µM, respectively.
As to `CNC(=O)CN1CCc2nc(N3CCC(Oc4ccc(F)cc4F)CC3)c(-c3cnn(C4CCCCO4)c3)nc2C1` (stereo not drawn) [Compound 144, 2-{2-[4-(2,4-difluorophenoxy)piperidin-1-yl]-3-[1-(oxan-2-yl)-1H-pyrazol-4-yl]-5H,6H,7H,8H-pyrido[3,4-b]pyrazin-6-yl}-N-methylacetamide], the 50% inhibitory concentration (IC50) at GPR3 (setting [3]) and against GPR6 (setting [4]) was 1 to 30 µM in each case.
